One assay has as its target T1, YTHDF1 mutant H528A (Homo sapiens, UniProt Q9BYJ9, H528A).
T1 construct: GST (N, cleaved yes); made in house; host or cells: E. coli BL21 (DE3)
Put plainly: FP assay with YTHDF1 mutant H528A. It is filed as binding. The procedure: The protein YTHDF1 (361-559) (SEQ ID NO: 2) and its mutants (SEQ ID NOs: 4-13) were cloned into pGEx-6P-1 vector (obtained from YouBio Co, Ltd, Catalog NO: VT1258), and the His-YTHDF1 (361-559) (SEQ ID NO: 3) used in AlphaScreen Assay was cloned into modified pET28a vector (obtained from YouBio Co, Ltd, Catalog NO: VT1207). The vectors were transformed into E. coli BL21 (DE3) cells and cultured at 37° C. When OD value reached 0.6˜0.8, 1 mM Isopropyl-β-D-thiogalactopyranoside was added to overexpress the protein at 16° C. overnight. […] Then, the proteins were further purified via cation exchange (HiTrap SP, GE Healthcare) and finally through a Superdex 75 10/300 column (GE Healthcare). At last, the purified YTHDF1(361-559) and the mutants were kept in buffer which contains 20 mM Hepes (pH 7.4) and 200 mM NaCl. For His-YTHDF1 (361-559), the protein was purified via Ni-NTA chromatography (HisTrap FF, GE Healthcare), followed by cation exchange and Superdex 75 10/300 column in sequence. And the obtained protein was kept in the buffer with the same ingredients.
All of the YTHDF1 (361-559), the 5′-FAM labeled m^6A-containing mRNA (5′-FAM-[…] (m^6A) CUGUG-3′, SEQ ID NO: 14) and the candidate compounds were diluted with assay buffer (20 mM Hepes (pH 7.4), 50 mM NaCl, 0.01% (v/v) tween 20, 5% (v/v) glycerol). […] At last, the mixtures were measured by Envision Readers (PerkinElmer). […]

A further assay addresses T2, YTHDF1 in 293T cells (Homo sapiens, UniProt Q9BYJ9).
T2 construct: endogenous in cells; host or cells: 293T (ATCC)
Put plainly: Cellular thermal shift assay (CETSA) in 293T cells. The format is cell-based. The settings on record: 100 μM SAA for 4 hours. The procedure: The cellular thermal shift assay (CETSA) was conducted according to the protocol reported previously. 293T cell line (ATCC) used in the assay was cultured at 37° C., 5% CO2, in DMEM culture medium (Life Technologies) containing 10% fetal calf serum (Gibco, U.S.A.), 1% penicillin/streptomycin (Life Technologies). 293T cells were collected after incubated with PBS buffer as control or 100 μM SAA for 4 hours and equally divided into twelve parts, respectively. The divided parts were heated under series of temperature range from 39° C. to 59° C. for 3 minutes and cooled at 4° C. for 3 minutes immediately. Then, the cells were lysed via freeze-thawing with liquid nitrogen and the protein samples were collected by centrifugation. Though adding in SDS loading and boiling at 99° C. for 5 minutes, the samples were prepared for western blot detection. In the western blot assays, GAPDH was used as the internal reference. And the quantitative analysis of the results of the assay was performed via ImageJ software.
Further, the binding of SAA to YTHDF1 in cells was also examined. Cellular thermal shift (CETSA) assay was performed with 293T cell line, which was collected for heating at temperatures as indicated. After incubating the cells with 100 μM SAA for 4 hours, YTHDF1 protein in the incubated 293T cells were examined with western blot. […]

In the next assay the test system is B16-OVA melanoma. Put plainly: B16-OVA tumor growth in wild-type mice. It is filed as in vivo, mouse.
In a further assay the test system is OT-I T cells. The assay is described as follows: CFSE-labeled OT-I T cell proliferation in vitro. It is filed as cell-based, mouse. As to conditions: 5×10^5 CFSE-labeled OT-I T cells, various doses, 1 μg/mL OT-I peptide 24 hours. The protocol:
1×10^7 lymphocytes form lymph nodes of naïve OT-I mice were washed with PBS twice, then resuspend in 1 mL PBS. 1 μL CFSE Tracker was added into suspension and incubated in 37° C. for 5 min. Then 5 mL RPMI-1640 medium with 10% FBS was added to stop CFSE labelling, incubated at room temperature for 5 min. After centrifugation, CFSE-labeled T cells were suspended with another 5 mL RPMI-1640 medium at least for 10 min in room temperature.
In a further experiment, 5×10^5 CFSE-labeled OT-I T cells were treated with SAA of various doses in 96-well plates, then the cells were stimulated with 1 μg/mL OT-I peptide for 24 hours. Divided T cells were analyzed by FACS.

Another assay has as its system B16-OVA tumor. Put plainly: B16-OVA tumor growth in Rag1-/- versus wild-type mice. As to conditions: 1×10^5 B16-OVA, 10 μM SAA day 7 to day 9. The format is in vivo, mouse. The protocol: For B6 mice tumor growth, 5×10^5 B16-OVA or 1×10^6 E.G7-OVA tumor cells were inoculated subcutaneously (s.c.) into the flank of mice. Tumor length (a) and width (b) was measured every two days and tumor volume was calculated by the formula ab^2/2. For the inhibitor treatment, 10 μM SAA or DMSO was injected intraperitoneally (i.p.) on day 9 and 11 after tumor inoculation. For other mice model (rag1^−/− and Ythdf1 conditional knockout), times and dose of inhibitor treatment was the same. For α-PD-L1 and SAA combination treatment, 5×10^5 B16-OVA tumor cells were inoculated subcutaneously into the flank of mice. 100 μg α-PD-L1 antibody (clone 10F.9G2) or rat immunoglobulin were administered at day 9 after tumor inoculation. 10 μM SAA or DMSO was administered in the same way on day 9 and 11 after tumor injection.
T/B cell-deficient Rag1^−/− mice were inoculated with 1×10^5 B16-OVA cells, and 10 μM SAA was then injected to each mouse from day 7 to day 9, and tumor growth was monitored, wild type mice were used as control group.

T2 sequence (Q9BYJ9 whole entry): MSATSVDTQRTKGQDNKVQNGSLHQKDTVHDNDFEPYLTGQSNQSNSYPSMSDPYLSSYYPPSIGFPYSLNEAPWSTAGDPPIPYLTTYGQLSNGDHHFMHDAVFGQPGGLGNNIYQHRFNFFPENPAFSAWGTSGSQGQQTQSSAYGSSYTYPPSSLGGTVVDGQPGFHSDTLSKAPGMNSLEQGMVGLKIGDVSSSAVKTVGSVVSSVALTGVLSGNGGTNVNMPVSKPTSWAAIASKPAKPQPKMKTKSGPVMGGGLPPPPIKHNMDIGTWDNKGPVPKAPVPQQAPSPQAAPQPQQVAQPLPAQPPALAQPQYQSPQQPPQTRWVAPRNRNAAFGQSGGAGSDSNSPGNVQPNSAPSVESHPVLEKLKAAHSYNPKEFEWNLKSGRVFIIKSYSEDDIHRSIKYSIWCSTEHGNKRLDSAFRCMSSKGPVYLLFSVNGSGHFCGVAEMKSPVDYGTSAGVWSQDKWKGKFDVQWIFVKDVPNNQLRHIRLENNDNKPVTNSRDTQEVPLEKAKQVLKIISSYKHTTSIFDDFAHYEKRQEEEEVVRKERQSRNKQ
T1 sequence (Q9BYJ9 with tags, fused parts or gaps H528A): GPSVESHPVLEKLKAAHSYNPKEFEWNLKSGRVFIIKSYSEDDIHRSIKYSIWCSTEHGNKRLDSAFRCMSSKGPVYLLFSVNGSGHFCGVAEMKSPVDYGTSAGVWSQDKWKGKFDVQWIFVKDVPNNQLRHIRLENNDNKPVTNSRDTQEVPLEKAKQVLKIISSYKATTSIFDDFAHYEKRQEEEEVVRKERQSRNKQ

`O=C(/C=C/c1ccc(O)c(O)c1/C=C/c1ccc(O)c(O)c1)O[C@H](Cc1ccc(O)c(O)c1)C(=O)O` [SAA, Salvianolic Acid A]: the “inhibitory activity against mutant binding to m6A versus wildtype” value at YTHDF1 mutant H528A is listed as “significantly weaker than that against wildtype YTHDF1”. For the same molecule, the “CETSA curve shift to the right (YTHDF1 stability)” value at YTHDF1 in 293T cells is “about 2 degrees”. The “tumor growth versus DMSO” value in the assay on B16-OVA melanoma (5×10^5 B16-OVA in C57BL/6 mice, 10 μM i.v. 9 days after implantation (FIG. 19)) was “tumor growth was much slower”. Also, in the assay with B16-OVA melanoma (5×10^5 B16-OVA s.c., 10 μM SAA on day 9 and 11), the “tumor growth versus control” value is recorded as “tumor growth was much slower”. Also, the T cell proliferation entry with OT-I T cells is recorded as “could not influence T cell proliferation”. Also, in the assay on B16-OVA tumor, the tumor growth entry is given as “tumor growth was arrested”.
